Calls of active or inactive are those of the source. The calls are words filed in the database; no cut-off is given here.
Legend:
Type in all cases: nucleic-acid assay
Nucleic Acid [1] = assay: Binding affinity to duplex DNA dA22.dT22 assessed as change in melting temperature at 3 uM by UV analysis at 260 nm
Nucleic Acid [2] = assay: Binding affinity to duplex DNA polydA:polydT assessed as increase of CD signal at 360nm and at 200 uM compound concentration
Nucleic Acid [3] = assay: Binding affinity to duplex DNA polydA:polydT assessed as decrease in viscosity at 200 uM

SMILES | ΔTm (Nucleic Acid [1]) [°C] | Activity (Nucleic Acid [2]) | Activity (Nucleic Acid [3])
CN1CCN(c2ccc3[nH]c(-c4ccc5[nH]c(-c6ccc(OCCOCCOCCN(CCOCCOCCN)C(=O)CCCc7ccc8ccc9cccc%10ccc7c8c9%10)cc6)nc5c4)nc3c2)CC1 | 16 | – | –
CN1CCN(c2ccc3[nH]c(-c4ccc5[nH]c(-c6ccc(OCCOCCOCCOCCOCCOCCNC(=S)NCCSCC[C@H]7O[C@@H](O[C@H]8[C@H](O)[C@@H](N)C[C@@H](N)[C@@H]8O[C@H]8O[C@H](CN)[C@@H](O)[C@H](O)[C@H]8N)[C@H](O)[C@@H]7O[C@@H]7O[C@H](CN)[C@H](O)[C@@H](O)[C@@H]7N)cc6)nc5c4)nc3c2)CC1 | 24 | Active | Active
CN1CCN(c2ccc3[nH]c(-c4ccc5[nH]c(-c6ccc(OCCOCCOCCN(CCOCCOCCNC(=S)NCCSCC[C@H]7O[C@@H](O[C@H]8[C@H](O)[C@@H](N)C[C@@H](N)[C@@H]8O[C@H]8O[C@H](CN)[C@@H](O)[C@H](O)[C@H]8N)[C@H](O)[C@@H]7O[C@@H]7O[C@H](CN)[C@H](O)[C@@H](O)[C@@H]7N)C(=O)CCCc7ccc8ccc9cccc%10ccc7c8c9%10)cc6)nc5c4)nc3c2)CC1 | 35 | Active | Active
NC[C@H]1O[C@@H](O[C@H]2[C@@H](O)[C@H](O[C@H]3[C@H](O)[C@@H](N)C[C@@H](N)[C@@H]3O[C@H]3O[C@H](CN)[C@@H](O)[C@H](O)[C@H]3N)O[C@@H]2CCSCCNC(=S)NCCOCCOCCNC(=O)CCCc2ccc3ccc4cccc5ccc2c3c45)[C@@H](N)[C@H](O)[C@H]1O | 5 | – | –
NC[C@@H]1O[C@H](O[C@H]2[C@@H](O)[C@H](O[C@@H]3[C@@H](O)[C@H](N)C[C@H](N)[C@H]3O[C@H]3O[C@H](CN)[C@@H](O)[C@H](O)[C@H]3N)O[C@@H]2CO)[C@H](N)[C@@H](O)[C@@H]1O | 0 | – | –
Nc1ccc2ccc3cccc4ccc1c2c34 | 2 | – | –
CN1CCN(c2ccc3[nH]c(-c4ccc5[nH]c(-c6ccc(O)cc6)nc5c4)nc3c2)CC1 | 22 | – | –
